Experimental data from patent publication US20230023559A1, “ARYLMETHYLENE HETEROCYCLIC COMPOUNDS AS KV1.3 POTASSIUM SHAKER CHANNEL BLOCKERS” (D. E. Shaw Research, LLC, priority 2019, published 2023).

Key:
Kv1.3 potassium channel = biological target: T1, Kv1.3 potassium channel (Homo sapiens, UniProt P22001); experiment: Kv1.3 potassium channel blocker activity, automated whole-cell patch clamp (Patchliner); assay type: cell-based; conditions: CHO-K1 cells stably expressing Kv1.3; whole cell current inhibition; read-out: Kv1.3_IC50
T1 construct: expressed in transfected cells
T1 sequence (P22001 whole entry): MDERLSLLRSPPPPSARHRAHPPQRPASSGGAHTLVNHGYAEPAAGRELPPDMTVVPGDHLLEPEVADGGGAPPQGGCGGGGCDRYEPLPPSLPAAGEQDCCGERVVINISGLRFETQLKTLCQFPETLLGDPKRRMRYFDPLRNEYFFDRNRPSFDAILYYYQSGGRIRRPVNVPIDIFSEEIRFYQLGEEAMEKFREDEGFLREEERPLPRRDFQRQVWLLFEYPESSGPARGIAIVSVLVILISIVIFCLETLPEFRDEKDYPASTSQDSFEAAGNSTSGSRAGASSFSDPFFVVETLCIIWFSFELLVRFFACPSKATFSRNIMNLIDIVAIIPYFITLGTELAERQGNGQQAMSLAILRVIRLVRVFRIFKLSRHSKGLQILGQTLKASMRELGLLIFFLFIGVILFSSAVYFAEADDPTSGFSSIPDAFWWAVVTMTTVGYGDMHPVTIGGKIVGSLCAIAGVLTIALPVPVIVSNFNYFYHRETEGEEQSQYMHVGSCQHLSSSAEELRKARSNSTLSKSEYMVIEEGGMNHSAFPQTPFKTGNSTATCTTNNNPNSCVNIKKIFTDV
Outline: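 Peak-current block was recorded on stable Kv1.3 CHO-K1 cells by automated patch clamp, stepping from a −90 mV holding potential to +40 mV for 100 ms at 0.1 Hz with 10 s breaks between trains. Online P/4 leak subtraction, 10 kHz sampling; compound exposure under 10 s per train.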

hERG channel = hERG channel (Homo sapiens, UniProt Q12809); experiment: hERG electrophysiology, automated whole-cell patch clamp (Patchliner)
hERG channel, sequence (Q12809 whole entry): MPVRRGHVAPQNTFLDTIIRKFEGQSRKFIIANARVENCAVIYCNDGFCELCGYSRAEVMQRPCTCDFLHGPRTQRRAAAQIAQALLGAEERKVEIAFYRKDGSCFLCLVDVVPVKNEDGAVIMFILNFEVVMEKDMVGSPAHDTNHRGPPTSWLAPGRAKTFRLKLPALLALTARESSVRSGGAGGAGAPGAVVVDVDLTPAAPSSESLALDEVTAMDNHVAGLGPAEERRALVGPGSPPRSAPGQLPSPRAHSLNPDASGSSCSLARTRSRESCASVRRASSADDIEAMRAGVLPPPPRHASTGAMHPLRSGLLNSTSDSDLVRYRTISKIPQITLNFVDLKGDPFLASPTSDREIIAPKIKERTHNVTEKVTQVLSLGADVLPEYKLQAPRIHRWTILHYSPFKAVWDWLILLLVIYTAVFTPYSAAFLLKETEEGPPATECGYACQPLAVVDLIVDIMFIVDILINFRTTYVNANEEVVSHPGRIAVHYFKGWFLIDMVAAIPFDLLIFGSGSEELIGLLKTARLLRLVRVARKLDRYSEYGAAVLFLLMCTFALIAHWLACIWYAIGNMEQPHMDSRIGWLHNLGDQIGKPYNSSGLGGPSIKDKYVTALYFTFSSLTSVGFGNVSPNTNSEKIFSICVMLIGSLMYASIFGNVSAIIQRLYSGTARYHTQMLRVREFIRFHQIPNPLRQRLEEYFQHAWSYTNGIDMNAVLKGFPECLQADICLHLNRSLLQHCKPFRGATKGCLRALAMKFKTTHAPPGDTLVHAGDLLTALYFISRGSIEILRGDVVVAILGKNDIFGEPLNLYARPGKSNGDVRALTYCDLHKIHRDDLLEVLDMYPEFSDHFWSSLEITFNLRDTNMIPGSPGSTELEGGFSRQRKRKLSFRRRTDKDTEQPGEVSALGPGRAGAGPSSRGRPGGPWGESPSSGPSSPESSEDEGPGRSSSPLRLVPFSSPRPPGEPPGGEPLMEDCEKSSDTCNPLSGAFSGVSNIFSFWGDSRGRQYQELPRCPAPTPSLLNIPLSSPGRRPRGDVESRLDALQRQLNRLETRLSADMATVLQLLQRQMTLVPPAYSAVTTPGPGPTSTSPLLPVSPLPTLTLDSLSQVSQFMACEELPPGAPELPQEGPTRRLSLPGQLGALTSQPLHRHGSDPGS
Method: CHO-K1 cells stably expressing hERG were grown in Ham's F-12 Medium with Glutamine containing 10% heat-inactivated FBS, 1% Penicillin/Streptomycin, Hygromycin (100 μg/ml) and G418 (100 μg/ml). Cells were grown in culture flasks at 37° C. in a 5% CO2-humidified incubator.
The cells were bathed in an extracellular solution containing 140 mM NaCl, 4 mM KCl, 2 mM CaCl2), 1 mM MgCl2, 5 mM Glucose, 10 mM HEPES; pH adjusted to 7.4 with NaOH; 295-305 mOsm. The internal solution contained 50 mM KCl, 10 mM NaCl, 60 mM KF, 20 mM EGTA, 10 mM HEPES; pH adjusted to 7.2 with KOH; 285 mOsm. All compounds were dissolved in DMSO at 30 mM. Compound stock solutions were freshly diluted with external solution to concentrations of 30 nM, 100 nM, 300 nM, 1 μM, 3 μM, 10 μM, 30 μM and 100 μM. The highest content of DMSO (0.3%) was present in 100 μM.
The voltage protocol (see Table B) was designed to simulate voltage changes during a cardiac action potential with a 300 ms depolarization to +20 mV (analogous to the plateau phase of the cardiac action potential), a repolarization for 300 ms to −50 mV (inducing a tail current) and a final step to the holding potential of −80 mV. The pulse frequency was 0.3 Hz. Control (compound-free) and compound pulse trains for each compound concentration applied contained 70 pulses.
Whole cell current recordings and compound application were enabled by means of an automated patch clamp platform Patchliner (Nanion). EPC 10 patch clamp amplifier (HEKA) along with Patchmaster software (HEKA Elektronik Dr. Schulze GmbH) was used for data acquisition. Data were sampled at 10 kHz without filtering. Increasing compound concentrations were applied consecutively to the same cell without washouts in between.
AUC and PEAK values were obtained with Patchmaster (HEKA Elektronik Dr. Schulze GmbH). To determine IC50 the last single pulse in the pulse train corresponding to a given compound concentration was used. Obtained AUC and PEAK values in the presence of compound were normalized to control values in the absence of compound. Using Origin (OridinLab), IC50 was derived from data fit to Hill equation: Icompound/Icontrol=(100−A)/(1+([compound]/IC50)nH)+A, where IC50 is the concentration at which current inhibition is half-maximal, [compound] is the applied compound concentration, A is the fraction of current that is not blocked and nH is the Hill coefficient.

Row | IC50 (Kv1.3 potassium channel) | Compound | IC50 (hERG channel)
1 | < 30 µM | N[C@H](c1c(O)cc(Cl)c(Cl)c1Cl)C1CCNCC1 (single isomer, unassigned) [Compound 60, Trifluoroacetic Acid] | > 30 µM
2 | < 10 µM | Oc1ccc2ccccc2c1C(O)C1CCNCC1 (centres unmarked) [Compound 30, 1-(hydroxy(piperidin-4-yl)methyl)naphthalen-2-ol] | > 30 µM
3 | < 10 µM | CC(C)(O)CN1CCC(C(N)c2cc(Cl)c(Cl)cc2O)CC1 (centres unmarked) [Compound 56, 2-[amino[1-(2-hydroxy-2-methylpropyl)piperidin-4-yl]methyl]-4,5-dichlorophenol Trifluoroacetic Acid] | < 30 µM
4 | < 0.5 µM | Cc1cc(O)c([C@H](N)C2CCN(C(=O)c3c[nH]c(=O)c(Cl)c3)CC2)cc1Cl [Compound 241, 5-[4-[(R)-amino (5-chloro-2-hydroxy-4-methylphenyl)methyl]piperidine-1-carbonyl]-3-chloro-1H-pyridin-2-one trifluoro-acetic acid] | > 30 µM
5 | < 10 µM | NC(c1cc(Cl)c(Cl)cc1O)C1(F)CCNCC1 (centres unmarked) [Compound 59, 2-[amino(4-fluoropiperidin-4-yl)methyl]-4,5-dichlorophenol Trifluoroacetic Acid] | < 30 µM
6 | < 10 µM | NC(c1cc(Cl)c(Cl)cc1O)C1CCN(CC2CC2)CC1 (centres unmarked) [Compound 51, 2-[amino[1-(cyclopropylmethyl)piperidin-4-yl]methyl]-4,5-dichlorophenol Trifluoroacetic Acid] | > 30 µM
7 | < 10 µM | N[C@@H](c1c(O)cc(Cl)c(Cl)c1Cl)C1CCNCC1 (single isomer, unassigned) [Compound 61, Trifluoroacetic Acid] | > 30 µM
8 | < 0.5 µM | O=C([C@@H]1CCNC1)N1CCC([C@@H](O)c2c(O)ccc(Cl)c2Cl)CC1 (single isomer, unassigned) [Compound 123, Trifluoroacetic Acid] | > 30 µM
9 | < 0.5 µM | N[C@@H](c1cc(Cl)c(Cl)cc1O)C1CCN(C(=O)N2CCNCC2)CC1 [Compound 141, 2-[(R)-amino[1-(piperazine-1-carbonyl)piperidin-4-yl]methyl]-4,5-dichlorophenol Trifluoroacetic Acid] | > 30 µM
10 | < 0.5 µM | N[C@@H](c1cc(Cl)c(Cl)cc1O)C1CCN(C(=O)[C@@H]2OCC[C@@H]2O)CC1 [Compound 260, (2R,3S)-2-[4-[(R)-amino(4,5-dichloro-2-hydroxyphenyl)methyl]piperidine-1-carbonyl]oxolan-3-ol Trifluoroacetic Acid] | > 30 µM
11 | < 0.5 µM | Cc1cc(O)c([C@H](N)C2CCN(C(=O)c3c[nH]c(=O)c(C)c3)CC2)cc1Cl [Compound 262, 5-[4-[(R)-amino (5-chloro-2-hydroxy-4-methylphenyl)methyl]piperidine-1-carbonyl]-3-methyl-1H-pyridin-2-one trifluoroacetic acid] | > 30 µM
12 | < 0.5 µM | NC(=O)N1CCC([C@H](N)c2cc(Cl)c(Cl)cc2O)CC1 (single isomer, unassigned) [Compound 81] | > 30 µM
13 | < 0.5 µM | N[C@@H](c1cc(Cl)c(Cl)cc1O)C1CCN(C(=O)C2COCCO2)CC1 (stereo partly drawn) [Compound 137, 2-[(R)-amino[1-(1,4-dioxane-2-carbonyl)piperidin-4-yl]methyl]-4,5-dichlorophenol trifluoroacetic acid] | < 30 µM
14 | < 0.5 µM | COCC(=O)N1CCC([C@@H](N)c2cc(Cl)c(Cl)cc2O)CC1 [Compound 134, 1-[4-[(R)-amino(4,5-dichloro-2-hydroxyphenyl)methyl]piperidin-1-yl]-2-methoxyethan-1-one trifluoroacetic acid] | < 30 µM
15 | < 0.5 µM | N[C@@H](c1cc(Cl)c(Cl)cc1O)C1CCN(C(=O)[C@H]2CCC(=O)N2)CC1 [Compound 165, (5R)-5-[4-[(R)-amino(4,5-dichloro-2-hydroxyphenyl)methyl]piperidine-1-carbonyl] pyrrolidin-2-one trifluoroacetic acid] | > 30 µM
16 | < 0.5 µM | N[C@@H](c1cc(Cl)c(Cl)cc1O)C1CCN(C(=O)C2CNC(=O)NC2)CC1 [Compound 275, 5-[4-[(R)-amino(4,5-dichloro-2-hydroxyphenyl)methyl]piperidine-1-carbonyl]-1,3-diazinan-2-one Trifluoroacetic Acid] | > 30 µM
17 | < 10 µM | C[C@@H](O)[C@H](N)C(=O)N1CCC([C@@H](N)c2cc(Cl)c(Cl)cc2O)CC1 [Compound 174, (2S,3R)-2-amino-1-[4-[(R)-amino(4,5-dichloro-2-hydroxyphenyl)methyl]piperidin-1-yl]-3-hydroxybutan-1-one bis (trifluoroacetic acid)] | > 30 µM

Row | IC50 (Kv1.3 potassium channel) | Compound | IC50 (hERG channel)
18 | < 10 µM | N[C@@H](c1cc(Cl)c(Cl)cc1O)[C@@H]1CCNC1 (single isomer, unassigned; diastereoisomer 2) [Compound 33, 2-(amino(pyrrolidin-3-yl)methyl)-4,5-dichlorophenol Trifluoroacetic Acid Diastereoisomer 2] | > 30 µM
19 | < 0.5 µM | O=C([C@@H]1CCNC1)N1CCC(Cc2c(O)ccc(Cl)c2Cl)CC1 [Compound 122, 3,4-dichloro-2-([1-[(3R)-pyrrolidine-3-carbonyl]piperidin-4-yl]methyl)phenol Trifluoroacetic Acid] | < 30 µM
20 | < 0.5 µM | N[C@@H](c1cc(Cl)c(Cl)cc1O)C1CCN(C(=O)C(CO)CO)CC1 [Compound 303, 1-[4-[(R)-amino(4,5-dichloro-2-hydroxyphenyl)methyl]piperidin-1-yl]-3-hydroxy-2-(hydroxymethyl) propan-1-one trifluoroacetic acid] | > 30 µM
21 | < 0.5 µM | CN(C)CC(=O)N1CCC([C@@H](N)c2cc(Cl)c(Cl)cc2O)CC1 [Compound 89, (R)-1-(4-(amino(4,5-dichloro-2-hydroxyphenyl)methyl)piperidin-1-yl)-2-(dimethylamino)ethanone] | > 30 µM
22 | < 0.5 µM | Cc1cc(O)c([C@H](N)C2CCN(C(=O)c3ccc(=O)[nH]c3)CC2)c(F)c1Cl [Compound 272, 5-[4-[(R)-amino(3-chloro-2-fluoro-6-hydroxy-4-methylphenyl)methyl]piperidine-1-carbonyl]-1H-pyridin-2-one Trifluoroacetic Acid] | > 30 µM
23 | < 0.5 µM | C[C@H]1CN(C(=O)[C@H](O)CO)CC[C@H]1[C@@H](N)c1cc(Cl)c(Cl)cc1O (single isomer, unassigned; isomer 2) [Compound 332] | > 30 µM
24 | < 0.5 µM | C[C@@H](N)C(=O)N1CCC(C(N)c2cc(Cl)c(Cl)cc2O)CC1 (stereo partly drawn) [Compound 54, (2R)-2-amino-1-(4-(amino(4,5-dichloro-2-hydroxyphenyl)methyl)piperidin-1-yl)propan-1-one Trifluoroacetic Acid] | > 30 µM
25 | < 0.5 µM | N[C@@H](c1cc(Cl)c(Cl)cc1O)C1CCN(C(=O)COC2COC2)CC1 [Compound 192, 1-[4-[(R)-amino(4,5-dichloro-2-hydroxyphenyl)methyl]piperidin-1-yl]-2-(oxetan-3-yloxy)ethan-1-one] | > 30 µM
26 | < 0.5 µM | N[C@@H](c1cc(Cl)c(Cl)cc1O)C1CCN(C(=O)[C@@H]2CNC(=O)OC2)CC1 (single isomer, unassigned; isomer 2) [Compound 210] | > 30 µM
27 | < 10 µM | Nc1cccc(N2CCC([C@@H](N)c3cc(Cl)c(Cl)cc3O)CC2)n1 [Compound 146, (R)-2-(amino(1-(6-aminopyridin-2-yl)piperidin-4-yl)methyl)-4,5-dichlorophenol Trifluoroacetic Acid] | < 30 µM
28 | < 10 µM | COCCS(=O)(=O)N1CCC([C@@H](N)c2cc(Cl)c(Cl)cc2O)CC1 [Compound 132, 2-[(R)-amino[1-(2-methoxyethanesulfonyl)piperidin-4-yl]methyl]-4,5-dichlorophenol Trifluoroacetic Acid] | < 30 µM
29 | < 10 µM | N[C@@H](c1cc(Cl)c(C(F)(F)F)cc1O)C1CCN(C(=O)[C@H](O)CO)CC1 [Compound 284, (2R)-1-[4-[(R)-amino[5-chloro-2-hydroxy-4-(trifluoromethyl)phenyl]methyl]piperidin-1-yl]-2,3-dihydroxypropan-1-one] | > 30 µM
30 | < 0.5 µM | N[C@@H](c1cc(Cl)c(Cl)cc1O)C1CCN(C(=O)C2CNC(=O)OC2)CC1 (stereo partly drawn) [Compound 279, 5-[4-[(R)-amino(4,5-dichloro-2-hydroxyphenyl)methyl]piperidine-1-carbonyl]-1,3-oxazinan-2-one trifluoroacetic acid] | > 30 µM
31 | < 10 µM | COC[C@@H](O)C(=O)N1CCC([C@@H](N)c2cc(Cl)c(Cl)cc2O)CC1 [Compound 197, (2R)-1-[4-[(R)-amino(4,5-dichloro-2-hydroxyphenyl)methyl]piperidin-1-yl]-2-hydroxy-3-methoxypropan-1-one trifluoroacetic acid] | > 30 µM
32 | < 0.5 µM | N[C@@H](c1cc(Cl)c(Cl)cc1O)C1CCN(C(=O)[C@H]2CCN2)CC1 [Compound 95, (4-((R)-amino(4,5-dichloro-2-hydroxyphenyl)methyl)piperidin-1-yl)((R)-azetidin-2-yl)methanone] | > 30 µM
33 | < 0.5 µM | NC(c1cc(Cl)c(Cl)cc1O)C1CCN(c2ccccn2)CC1 (centres unmarked) [Compound 70, 2-[amino[1-(pyridin-2-yl)piperidin-4-yl]methyl]-4,5-dichlorophenol Trifluoroacetic Acid] | < 30 µM
34 | < 0.5 µM | N[C@@H](c1cc(Cl)c(C2CC2)cc1O)C1CCN(C(=O)[C@H](O)CO)CC1 [Compound 289, (2R)-1-[4-[(R)-amino(5-chloro-4-cyclopropyl-2-hydroxyphenyl)methyl]piperidin-1-yl]-2,3-dihydroxypropan-1-one] | > 30 µM
